Key:
Assay type in all cases: in vivo
[1] = system: Italian ryegrass (Lolium multiflorum); test: Test A preemergence, visual injury rating; details: for Plant response rating, Ryegrass, Italian: 31 g ai/ha, 0 to 100 scale, 0 no effect, 100 complete control; for Ryegrass, Italian plant response rating: 125 g ai/ha, 0 to 100 scale (0 no effect, 100 complete control)
How it was run: (§1)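 Scoring: eye-based comparison with untreated controls, 0 for no effect through 100 for complete control, at about day 10. Treatments: directed soil spray preemergence; foliar spray postemergence on 2–10 cm plants at the one- to two-leaf stage. Medium: loam soil with sand.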

[2] = system: barnyardgrass (Echinochloa crus-galli); test: Test A preemergence, visual injury rating; details: for Plant response rating, Barnyardgrass: 31 g ai/ha, 0 to 100 scale, 0 no effect, 100 complete control; for Barnyardgrass plant response rating: 125 g ai/ha, 0 to 100 scale (0 no effect, 100 complete control)
How it was run: as §1

[3] = system: giant foxtail (Setaria faberii); test: Test A preemergence, visual injury rating; details: for Plant response rating, Foxtail, Giant: 31 g ai/ha, 0 to 100 scale, 0 no effect, 100 complete control; for Foxtail, Giant plant response rating: 125 g ai/ha, 0 to 100 scale (0 no effect, 100 complete control)
How it was run: as §1

[4] = system: kochia (Kochia scoparia); test: Test A preemergence, visual injury rating; details: for Plant response rating, Kochia: 31 g ai/ha, 0 to 100 scale, 0 no effect, 100 complete control; for Kochia plant response rating: 125 g ai/ha, 0 to 100 scale (0 no effect, 100 complete control)
How it was run: as §1

[5] = system: pigweed (Amaranthus retroflexus); test: Test A preemergence, visual injury rating; details: for Plant response rating, Pigweed: 31 g ai/ha, 0 to 100 scale, 0 no effect, 100 complete control; for Pigweed plant response rating: 125 g ai/ha, 0 to 100 scale (0 no effect, 100 complete control)
How it was run: as §1

[6] = system: ragweed (common ragweed, Ambrosia elatior); test: Test A preemergence, visual injury rating; details: for Plant response rating, Ragweed: 31 g ai/ha, 0 to 100 scale, 0 no effect, 100 complete control; for Ragweed plant response rating: 125 g ai/ha, 0 to 100 scale (0 no effect, 100 complete control)
How it was run: as §1

[7] = system: Italian ryegrass (Lolium multiflorum); test: Test A postemergence, visual injury rating; details: 0 to 100 scale, 0 is no effect, 100 is complete control, approximately 10 days
How it was run: as §1

[8] = system: barnyardgrass (Echinochloa crus-galli); test: Test A postemergence, visual injury rating; details: 0 to 100 scale, 0 is no effect, 100 is complete control, approximately 10 days
How it was run: as §1

[9] = system: blackgrass (Alopecurus myosuroides); test: Test A postemergence, visual injury rating; details: 0 to 100 scale, 0 is no effect, 100 is complete control, approximately 10 days
How it was run: as §1

[10] = system: corn (Zea mays); test: Test A postemergence, visual injury rating; details: 0 to 100 scale, 0 is no effect, 100 is complete control, approximately 10 days
How it was run: as §1

[11] = system: galium (catchweed bedstraw, Galium aparine); test: Test A postemergence, visual injury rating; details: 0 to 100 scale, 0 is no effect, 100 is complete control, approximately 10 days
How it was run: as §1

[12] = system: giant foxtail (Setaria faberii); test: Test A postemergence, visual injury rating; details: 0 to 100 scale, 0 is no effect, 100 is complete control, approximately 10 days
How it was run: as §1

[13] = system: kochia (Kochia scoparia); test: Test A postemergence, visual injury rating; details: 0 to 100 scale, 0 is no effect, 100 is complete control, approximately 10 days
How it was run: as §1

[14] = system: pigweed (Amaranthus retroflexus); test: Test A postemergence, visual injury rating; details: 0 to 100 scale, 0 is no effect, 100 is complete control, approximately 10 days
How it was run: as §1

[15] = system: ragweed (common ragweed, Ambrosia elatior); test: Test A postemergence, visual injury rating; details: 0 to 100 scale, 0 is no effect, 100 is complete control, approximately 10 days
How it was run: as §1

[16] = system: wheat (Triticum aestivum); test: Test A postemergence, visual injury rating; details: 0 to 100 scale, 0 is no effect, 100 is complete control, approximately 10 days
How it was run: as §1

[17] = system: barnyardgrass (Echinochloa crus-galli); test: Test B flooded paddy test, plant response rating; details: 250 g ai/ha; Flood; scale of 0 to 100 where 0 is no effect and 100 is complete control; 13 to 15 days
How it was run: (§2)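 Ratings were visual and made relative to untreated controls after 13 to 15 greenhouse days.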

[18] = system: ducksalad (Heteranthera limosa); test: Test B flooded paddy test, plant response rating; details: 250 g ai/ha; Flood; scale of 0 to 100 where 0 is no effect and 100 is complete control; 13 to 15 days
How it was run: as §2

[19] = system: rice (Oryza sativa); test: Test B flooded paddy test, plant response rating; details: 250 g ai/ha; Flood; scale of 0 to 100 where 0 is no effect and 100 is complete control; 13 to 15 days
How it was run: as §2

[20] = system: sedge, umbrella (small-flower umbrella sedge, Cyperus difformis); test: Test B flooded paddy test, plant response rating; details: 250 g ai/ha; Flood; scale of 0 to 100 where 0 is no effect and 100 is complete control; 13 to 15 days
How it was run: as §2

| Structure (SMILES) | Plant response rating, Ryegrass, Italian [1] | Ryegrass, Italian plant response rating [1] | Plant response rating, Barnyardgrass [2] | Barnyardgrass plant response rating [2] | Plant response rating, Foxtail, Giant [3] | Foxtail, Giant plant response rating [3] | Plant response rating, Kochia [4] | Kochia plant response rating [4] | Plant response rating, Pigweed [5] | Pigweed plant response rating [5] | Plant response rating, Ragweed [6] | Ragweed plant response rating [6] | Ryegrass, Italian plant response rating ([7]; 31 g ai/ha) | Ryegrass, Italian plant response rating ([7]; 125 g ai/ha) | Barnyardgrass plant response rating ([8]; 31 g ai/ha) | Barnyardgrass plant response rating ([8]; 125 g ai/ha) | Blackgrass plant response rating ([9]; 31 g ai/ha) | Blackgrass plant response rating ([9]; 125 g ai/ha) | Corn plant response rating ([10]; 31 g ai/ha) | Corn plant response rating ([10]; 125 g ai/ha) | further results |
| --- | --- | --- | --- | --- | --- | --- | --- | --- | --- | --- | --- | --- | --- | --- | --- | --- | --- | --- | --- | --- | --- |
| CCCCCc1c(C#N)cccc1Oc1ncc(Cl)cn1 [Compound 87] | 0 | 20 | 70 | 100 | 60 | 100 | 30 | 90 | 40 | 100 | 0 | 0 | 0 | 30 | 40 | 100 | 10 | 70 | 40 | 50 | Galium plant response rating ([11]; 31 g ai/ha): 30; Galium plant response rating ([11]; 125 g ai/ha): 70; Foxtail, Giant plant response rating ([12]; 31 g ai/ha): 40; Foxtail, Giant plant response rating ([12]; 125 g ai/ha): 90; Kochia plant response rating ([13]; 31 g ai/ha): 100; Kochia plant response rating ([13]; 125 g ai/ha): 100; Pigweed plant response rating ([14]; 31 g ai/ha): 40; Pigweed plant response rating ([14]; 125 g ai/ha): 60; Ragweed plant response rating ([15]; 31 g ai/ha): 0; Ragweed plant response rating ([15]; 125 g ai/ha): 0; Wheat plant response rating ([16]; 31 g ai/ha): 20; Wheat plant response rating ([16]; 125 g ai/ha): 30; Plant response rating, Barnyardgrass [17]: 50; Plant response rating, Ducksalad [18]: 100; Plant response rating, Rice [19]: 35; Plant response rating, Sedge, Umbrella [20]: 100 |
| O=C(OCCC(F)(F)F)c1cc(Cl)ccc1Oc1ncc(Cl)cn1 [Compound 88] | 0 | 0 | 0 | 0 | 0 | 0 | 0 | 0 | 0 | 0 | 0 | 0 | 0 | 0 | 0 | 0 | 0 | 0 | 0 | 0 | Galium plant response rating ([11]; 31 g ai/ha): 0; Galium plant response rating ([11]; 125 g ai/ha): 0; Foxtail, Giant plant response rating ([12]; 31 g ai/ha): 0; Foxtail, Giant plant response rating ([12]; 125 g ai/ha): 0; Kochia plant response rating ([13]; 31 g ai/ha): 0; Kochia plant response rating ([13]; 125 g ai/ha): 0; Pigweed plant response rating ([14]; 31 g ai/ha): 0; Pigweed plant response rating ([14]; 125 g ai/ha): 0; Ragweed plant response rating ([15]; 31 g ai/ha): 0; Ragweed plant response rating ([15]; 125 g ai/ha): 0; Wheat plant response rating ([16]; 31 g ai/ha): 0; Wheat plant response rating ([16]; 125 g ai/ha): 0; Plant response rating, Barnyardgrass [17]: 0; Plant response rating, Ducksalad [18]: 0; Plant response rating, Rice [19]: 20; Plant response rating, Sedge, Umbrella [20]: 0 |

Reference: US11053204B2, “Pyrimidinyloxy benzene derivatives as herbicides” (FMC Corporation, priority 2015, dated 2021)
